What was measured:
GABA-B = molecular target: T1, GABA-B (Homo sapiens, UniProt Q9UBS5); assay: NovaScreen assay; assay type: binding; details: read-out: Inhibition, 10 μM XL-647
T1 construct: NovaScreen

[1] = molecular target: T2, Cholecystokinin, CCK1 (CCKA) (Homo sapiens, UniProt P32238); assay: NovaScreen assay; assay type: binding; details: read-out: Inhibition, 10 μM XL-647
T2 construct: NovaScreen

Neurokinin, NK3 (NKB) = molecular target: T3, Neurokinin, NK3 (NKB) (Homo sapiens, UniProt P29371); assay: NovaScreen assay; assay type: binding; details: read-out: Inhibition, 10 μM XL-647
T3 construct: NovaScreen
T3 sequence (P29371 whole entry): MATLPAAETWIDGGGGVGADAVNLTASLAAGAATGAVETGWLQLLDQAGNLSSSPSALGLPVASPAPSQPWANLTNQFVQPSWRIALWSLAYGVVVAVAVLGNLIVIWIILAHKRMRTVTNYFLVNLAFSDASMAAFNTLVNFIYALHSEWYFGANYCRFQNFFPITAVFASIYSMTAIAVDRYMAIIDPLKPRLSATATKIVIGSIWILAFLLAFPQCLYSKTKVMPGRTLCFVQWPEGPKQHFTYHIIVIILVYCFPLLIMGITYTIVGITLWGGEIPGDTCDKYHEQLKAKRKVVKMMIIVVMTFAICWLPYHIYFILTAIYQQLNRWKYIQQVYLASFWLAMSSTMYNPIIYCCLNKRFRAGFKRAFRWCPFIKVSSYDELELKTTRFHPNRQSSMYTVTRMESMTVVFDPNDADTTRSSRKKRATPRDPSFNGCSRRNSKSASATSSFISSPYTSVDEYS

[2] = human, in vivo
Experimental: Food effect on bioavailability was analyzed.

Plk1 = molecular target: T4, Plk1 (Homo sapiens, UniProt P53350); assay: Radiometric kinase assay; assay type: biochemical
T4 construct: His6
T4 sequence (P53350 whole entry): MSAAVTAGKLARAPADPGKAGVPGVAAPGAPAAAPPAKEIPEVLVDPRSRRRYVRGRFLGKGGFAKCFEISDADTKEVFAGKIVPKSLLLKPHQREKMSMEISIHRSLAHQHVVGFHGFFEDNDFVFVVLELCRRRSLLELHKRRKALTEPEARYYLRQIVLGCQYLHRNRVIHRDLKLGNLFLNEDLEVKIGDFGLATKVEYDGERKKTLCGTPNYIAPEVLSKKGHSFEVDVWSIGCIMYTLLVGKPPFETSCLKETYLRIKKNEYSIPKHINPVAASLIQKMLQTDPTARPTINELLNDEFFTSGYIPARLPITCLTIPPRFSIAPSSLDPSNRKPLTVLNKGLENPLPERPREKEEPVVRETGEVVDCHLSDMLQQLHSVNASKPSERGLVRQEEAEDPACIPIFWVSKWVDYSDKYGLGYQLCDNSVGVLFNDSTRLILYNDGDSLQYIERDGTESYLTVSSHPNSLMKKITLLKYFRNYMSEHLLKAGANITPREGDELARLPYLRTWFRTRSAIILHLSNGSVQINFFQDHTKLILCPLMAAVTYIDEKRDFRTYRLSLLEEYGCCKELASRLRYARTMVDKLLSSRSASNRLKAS
Experimental: (§1) Further screening was performed using the biochemical assay methods of Example 2. Additional description of the components and concentrations are summarized in Table 8, Table 9, and Table 10, below.

Chk1 = molecular target: T5, Chk1 (Homo sapiens, UniProt O14757); assay: Radiometric kinase assay; assay type: biochemical
T5 construct: GST (N); purchased Upstate Biotechnology
T5 sequence (O14757 whole entry): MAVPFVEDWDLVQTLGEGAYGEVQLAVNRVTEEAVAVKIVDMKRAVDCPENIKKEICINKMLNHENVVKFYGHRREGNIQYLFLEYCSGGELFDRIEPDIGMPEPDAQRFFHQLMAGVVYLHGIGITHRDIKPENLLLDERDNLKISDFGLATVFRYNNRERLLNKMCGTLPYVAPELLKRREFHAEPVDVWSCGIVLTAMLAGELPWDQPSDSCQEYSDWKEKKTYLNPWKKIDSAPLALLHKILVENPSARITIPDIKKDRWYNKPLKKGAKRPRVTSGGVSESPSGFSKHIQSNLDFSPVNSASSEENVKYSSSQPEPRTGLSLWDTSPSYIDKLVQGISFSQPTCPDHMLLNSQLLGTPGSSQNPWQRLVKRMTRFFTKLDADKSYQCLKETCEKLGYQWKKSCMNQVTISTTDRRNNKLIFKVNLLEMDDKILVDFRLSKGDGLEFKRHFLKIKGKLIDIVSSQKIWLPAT
Experimental: as §1

Chk2 = molecular target: T6, Chk2 (Homo sapiens, UniProt O96017); assay: Radiometric kinase assay; assay type: biochemical
T6 construct: Human, 5-543, N-; GST (N); His (C); purchased Upstate Biotechnology
Experimental: as §1

PKC-ε = molecular target: T7, PKC-ε (Homo sapiens, UniProt Q02156); assay: Radiometric kinase assay; assay type: biochemical
T7 construct: purchased PanVera
T7 sequence (Q02156 whole entry): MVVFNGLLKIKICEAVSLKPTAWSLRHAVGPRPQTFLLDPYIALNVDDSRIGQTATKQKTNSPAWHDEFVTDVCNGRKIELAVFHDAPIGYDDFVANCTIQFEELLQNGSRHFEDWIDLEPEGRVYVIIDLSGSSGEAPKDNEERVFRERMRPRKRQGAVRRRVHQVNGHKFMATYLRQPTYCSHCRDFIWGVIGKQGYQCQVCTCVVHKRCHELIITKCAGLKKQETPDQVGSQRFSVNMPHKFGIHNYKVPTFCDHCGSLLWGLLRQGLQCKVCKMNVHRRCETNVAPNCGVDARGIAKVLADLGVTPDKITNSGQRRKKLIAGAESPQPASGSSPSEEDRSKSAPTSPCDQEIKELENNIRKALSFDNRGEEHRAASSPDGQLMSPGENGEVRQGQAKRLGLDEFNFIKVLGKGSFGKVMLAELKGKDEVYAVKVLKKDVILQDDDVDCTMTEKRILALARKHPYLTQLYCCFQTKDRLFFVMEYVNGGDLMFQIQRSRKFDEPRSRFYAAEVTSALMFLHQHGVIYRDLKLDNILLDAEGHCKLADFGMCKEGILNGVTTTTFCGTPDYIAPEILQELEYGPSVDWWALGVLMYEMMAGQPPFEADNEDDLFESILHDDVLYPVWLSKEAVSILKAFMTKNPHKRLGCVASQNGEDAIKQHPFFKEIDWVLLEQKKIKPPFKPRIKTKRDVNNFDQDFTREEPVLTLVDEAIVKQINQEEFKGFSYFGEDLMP
Experimental: as §1

[3] = tested on: subjects with non-small-cell lung cancer; assay: Clinical Study XL-647-201 (Phase 2, NSCLC front-line); assay type: in vivo, human; details: Intermittent 5&9 schedule
From the text: Study XL-647-201: Subjects with non-small-cell lung cancer (NSCLC) (n=52) of adenomacarcinoma histology, Stage IIIB, with malignant pleural effusion, or Stage IV previously untreated for metastatic disease were enrolled. Subjects were selected for clinical characteristics predictive of response to EGFR inhibitors (Asian, female, and/or minimal and remote smoking history).

Galanin, Non-Selective = assay: NovaScreen assay; assay type: binding
[4] = tested on: ERK phosphorylation (H1975 cells); assay: Immunoblot analysis of H1975 cell lysates; assay type: cell-based, human
Experimental: (§2) For the H1975 immunoblot studies, 3×10^5 cells were plated in each well (12-well plate) and incubated for 16 h in complete RPMI 1640, rinsed with fetal bovine serum-free RPMI 1640, and incubated with serial dilutions of test compounds in fetal bovine serum-free medium for 2 h followed by stimulation with 100 ng/mL human recombinant EGF for 10 min. Whole-cell protein lysates were prepared as described above and centrifuged for 10 min at 13,000×g at 4° C. to remove any insoluble material. Total protein was determined using bicinchoninic acid reagent and an equal amount of protein was combined with LDS loading buffer (Invitrogen) according to the manufacturer's instructions. Proteins were separated by gel electrophoresis on 4% to 15% polyacrylamide gels, transferred to nitrocellulose membranes, and detected by immunoblotting. Antibody:antigen complexes were detected using chemiluminescence. The following antibodies from Cell Signaling Technology were used at a 1:1,000 dilution: anti-EGFR, anti-pEGFR^Tyr1068, anti-AKT, anti-pAKT^Ser473, anti-ERK, and anti-pERK^Thr202/Tyr204. The anti-β-actin primary antibody (Accurate Chemical and Scientific) was used at 1:10,000 and the horseradish peroxidase-coupled secondary antibodies were purchased from Jackson ImmunoResearch and used at 1:5,000.

[5] = tested on: AKT phosphorylation (H1975 cells); assay: Immunoblot analysis of H1975 cell lysates; assay type: cell-based, human
Experimental: as §2

Sigma, Non-selective = assay: NovaScreen assay; assay type: binding
Flt-4 = Flt-4 (Homo sapiens, UniProt P35916); assay: Flt-4 autophosphorylation ELISA, transfected COS cells; assay type: cell-based; design: expressed in transfected cells; host or cells: COS cells; details: read-out: Cellular IC50, autophosphorylation
Experimental: The Flt-4 autophosphorylation ELISA utilized COS cells. Cells were seeded at 200,000 cells per well in 6-well plates in DMEM with 10% FBS and grown at 5% CO2 and 37° C. After 24 h growth, cells were transfected with 1 μg/well Flt-4 cDNA, using 3 μl FuGENE-6 (Roche). […] The cell monolayer was washed twice with cold PBS and harvested by scraping into 150 μl ice-cold lysis buffer. Cell lysates were centrifuged at 13,000 g for 15 min, diluted 1:10 in ice-cold PBS, and transferred to clear Streptavidin plates (Pierce) coated with anti-human […] (Flt-4) biotinylated goat IgG (2 μg/well, R&D Biosciences). After washing, anti-Flag M2 mouse IgG-HRP (Sigma 1 to 10,000 dilution) or anti phospho-tyrosine rabbit IgG-HRP (Zymed, 61-5820, 1:10,000) was used to detect total Flt-4 and phosphorylated Flt-4.

[6] = molecular target: T8, Neurokinin, NK2 (NKA) (Human Recombinant) (Homo sapiens, UniProt P21452); assay: NovaScreen assay; assay type: binding; details: read-out: Inhibition, 10 μM XL-647
T8 construct: NovaScreen
T8 sequence (P21452 whole entry): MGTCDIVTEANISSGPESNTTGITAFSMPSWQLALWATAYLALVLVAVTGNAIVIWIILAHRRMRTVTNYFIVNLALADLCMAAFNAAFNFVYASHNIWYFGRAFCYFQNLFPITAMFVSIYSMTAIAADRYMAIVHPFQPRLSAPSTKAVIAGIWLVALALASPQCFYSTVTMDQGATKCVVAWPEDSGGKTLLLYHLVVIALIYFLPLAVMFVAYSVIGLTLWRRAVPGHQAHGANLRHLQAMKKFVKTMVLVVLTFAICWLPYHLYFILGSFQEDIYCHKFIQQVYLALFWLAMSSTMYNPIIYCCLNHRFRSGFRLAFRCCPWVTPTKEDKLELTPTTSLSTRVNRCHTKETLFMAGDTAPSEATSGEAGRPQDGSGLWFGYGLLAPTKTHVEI

T2 sequence (P32238 whole entry): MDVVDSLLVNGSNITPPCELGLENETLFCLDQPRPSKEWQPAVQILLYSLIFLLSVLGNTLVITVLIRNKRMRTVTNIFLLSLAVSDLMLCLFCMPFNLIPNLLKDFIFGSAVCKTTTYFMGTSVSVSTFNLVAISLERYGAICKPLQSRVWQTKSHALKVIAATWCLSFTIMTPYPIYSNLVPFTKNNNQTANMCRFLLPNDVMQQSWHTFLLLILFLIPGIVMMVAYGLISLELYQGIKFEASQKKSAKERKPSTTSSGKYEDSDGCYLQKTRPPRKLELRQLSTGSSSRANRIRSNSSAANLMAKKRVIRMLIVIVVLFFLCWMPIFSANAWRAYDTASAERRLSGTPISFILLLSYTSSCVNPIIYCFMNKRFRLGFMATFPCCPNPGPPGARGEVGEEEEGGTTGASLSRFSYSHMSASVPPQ
T1 sequence (Q9UBS5 15-961 limits assumed): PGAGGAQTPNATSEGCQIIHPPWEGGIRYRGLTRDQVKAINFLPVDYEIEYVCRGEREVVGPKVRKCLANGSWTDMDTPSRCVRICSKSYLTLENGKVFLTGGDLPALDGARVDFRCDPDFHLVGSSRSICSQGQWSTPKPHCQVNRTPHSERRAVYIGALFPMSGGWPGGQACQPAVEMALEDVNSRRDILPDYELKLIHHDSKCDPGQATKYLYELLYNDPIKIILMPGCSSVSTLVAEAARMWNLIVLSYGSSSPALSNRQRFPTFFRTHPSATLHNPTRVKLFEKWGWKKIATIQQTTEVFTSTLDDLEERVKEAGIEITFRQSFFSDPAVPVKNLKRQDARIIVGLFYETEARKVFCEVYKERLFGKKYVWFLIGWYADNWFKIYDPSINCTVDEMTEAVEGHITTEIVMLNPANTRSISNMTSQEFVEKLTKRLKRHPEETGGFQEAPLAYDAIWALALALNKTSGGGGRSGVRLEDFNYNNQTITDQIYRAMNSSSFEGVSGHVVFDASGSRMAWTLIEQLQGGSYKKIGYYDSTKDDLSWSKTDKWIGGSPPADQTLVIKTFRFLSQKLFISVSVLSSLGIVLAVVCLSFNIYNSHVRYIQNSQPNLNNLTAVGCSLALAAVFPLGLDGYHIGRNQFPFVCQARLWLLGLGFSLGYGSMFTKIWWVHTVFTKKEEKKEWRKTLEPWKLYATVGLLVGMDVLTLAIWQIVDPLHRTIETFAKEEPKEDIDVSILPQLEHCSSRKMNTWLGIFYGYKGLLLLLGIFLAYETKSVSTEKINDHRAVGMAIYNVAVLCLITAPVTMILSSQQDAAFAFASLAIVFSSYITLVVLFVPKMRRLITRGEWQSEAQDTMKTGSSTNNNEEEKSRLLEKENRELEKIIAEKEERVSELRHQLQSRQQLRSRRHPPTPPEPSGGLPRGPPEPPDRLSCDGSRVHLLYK
T1 sequence (O75899 42-941 partner): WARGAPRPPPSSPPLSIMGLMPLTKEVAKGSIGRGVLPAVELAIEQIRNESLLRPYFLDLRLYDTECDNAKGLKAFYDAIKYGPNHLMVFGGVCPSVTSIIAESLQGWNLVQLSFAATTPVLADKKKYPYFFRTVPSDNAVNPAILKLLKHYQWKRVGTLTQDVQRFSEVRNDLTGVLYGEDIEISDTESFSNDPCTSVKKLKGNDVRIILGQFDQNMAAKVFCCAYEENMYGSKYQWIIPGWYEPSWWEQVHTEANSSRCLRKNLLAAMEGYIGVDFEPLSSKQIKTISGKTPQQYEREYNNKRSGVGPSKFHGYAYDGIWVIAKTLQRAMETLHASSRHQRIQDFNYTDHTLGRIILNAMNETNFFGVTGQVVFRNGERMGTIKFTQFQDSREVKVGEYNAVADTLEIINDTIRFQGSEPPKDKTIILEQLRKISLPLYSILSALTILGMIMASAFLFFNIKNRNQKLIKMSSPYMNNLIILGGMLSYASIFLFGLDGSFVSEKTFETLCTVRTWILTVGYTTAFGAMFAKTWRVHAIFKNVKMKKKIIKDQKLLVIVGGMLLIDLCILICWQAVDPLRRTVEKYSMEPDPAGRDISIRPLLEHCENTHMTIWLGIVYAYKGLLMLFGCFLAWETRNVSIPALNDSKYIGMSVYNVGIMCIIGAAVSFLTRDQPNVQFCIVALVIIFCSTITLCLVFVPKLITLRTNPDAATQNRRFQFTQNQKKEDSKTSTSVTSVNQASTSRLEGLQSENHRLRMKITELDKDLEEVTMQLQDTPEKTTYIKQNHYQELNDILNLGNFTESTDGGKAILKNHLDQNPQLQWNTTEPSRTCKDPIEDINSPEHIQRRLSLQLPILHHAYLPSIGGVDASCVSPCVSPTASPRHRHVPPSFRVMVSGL

**Q.** Which results are given for `COc1cc2c(Nc3ccc(Cl)c(Cl)c3F)ncnc2cc1OC[C@@H]1C[C@@H]2CN(C)C[C@@H]2C1` [XL-647, N-(3,4-dichloro-2-fluorophenyl)-7-({[(3aR,5r,6aS)-2-methyloctahydrocyclopenta[c]pyrrol-5-yl]methyl}oxy)-6-(methyloxy)quinazolin-4-amine]?
**A.** inhibition at 10 µM (GABA-B): -1.19%; inhibition at 10 µM [1]: 47.5%; inhibition at 10 µM (Neurokinin, NK3 (NKB)): 20%; AUC increase in the presence of food [2]: approximately 18%; Cmax increase in the presence of food [2]: about 5%; IC50 (Plk1): > 1 µM; IC50 (Chk1): > 10 µM; IC50 (Chk2): > 10 µM; IC50 (PKC-ε): > 10 µM; clinical benefit rate (PR+SD) ([3]; 38 evaluable): 71%; subjects with PR ([3]; of 38 evaluable): 10 subjects; subjects with SD lasting 3 months or more ([3]; of 38 evaluable): 17 subjects; Inhibition, 10 μM XL-647 (Galanin, Non-Selective): 1.57%; phosphorylation of ERK, immunoblot [4]: inhibits the phosphorylation of AKT and ERK; phosphorylation of AKT, immunoblot [5]: inhibits the phosphorylation of AKT and ERK; Inhibition, 10 μM XL-647 (Sigma, Non-selective): 50.90%; IC50 (Flt-4): 0.09 µM; inhibition at 10 µM [6]: 34.2%

From patent publication US9364479B2, “Use of a receptor-type kinase modulator for treating polycystic kidney disease” (SYMPHONY EVOLUTION, INC., priority 2010, dated 2016)
